One experiment concerns S. aureus ATCC 29213. Briefly: minimum inhibitory concentration (MIC) against S. aureus ATCC 29213. Format: cell-based, Staphylococcus aureus. The source says: (§1) In embodiments, the antibacterials of this invention may have useful activity against a variety of organisms. The in vitro activity of compounds of this invention may be assessed by standard testing procedures such as the determination of minimum inhibitory concentration (MIC) by agar dilution.
(§2) Compound A was broken down into smaller structural components and each fraction tested to understand the impact of certain components on the antibacterial properties of the compounds. Based on the understanding of compound A, the compounds (compounds 1 and 2) shown below, were tested further. […] A minimum inhibitory concentration is the lowest concentration of an antimicrobial that will inhibit the visible growth of a microorganism after overnight incubation.
(§3) In accordance with embodiments of the present invention, a variety of compounds have been prepared and tested, as indicated, in part, by the description above. The tables below provide minimum inhibitory concentration data for the identified compounds tested against various bacterial strains.
(§4) Table 1 lists the active compounds and the activity of those compounds for a limited quantity of bacteria. Blank spaces indicate low or no activity.

In the next experiment the test system is S. aureus VAN2. Briefly: minimum inhibitory concentration (MIC) against S. aureus VAN2. It is filed as cell-based, Staphylococcus aureus.
Source text: as §1, §2, §3

The next experiment deals with strains of Entercoccus. Briefly: activity (minimum inhibitory concentration testing) against strains of Entercoccus. Format: cell-based. The following applies: result in words; for activity as measured by minimum inhibitory concentration testing against several strains of Entercoccus: FIG. 1. As to the method: (§5) In an embodiment, an initial antibacterial compound was provided and tested. Such compound is identified below as compound A. Compound A (below) is an inhibitor of gram positive bacteria.
as §2

A further experiment relates to E. faecal 201. Briefly: minimum inhibitory concentration (MIC) against E. faecal 201. It is filed as cell-based, E. faecalis.
Source text: as §1, §2, §3, §4

The test system of the next experiment is E. faecalis 29212. Briefly: minimum inhibitory concentration (MIC) against E. faecalis 29212. It is filed as cell-based. Details: minimum inhibitory concentration, E. faecalis 29212: unit not given here.
Source text: as §1, §2, §3, §4

The subject of experiment [1] is several strains of Staphylococcus aureus. Briefly: activity (minimum inhibitory concentration testing) against several strains of Staphylococcus aureus. Format: cell-based. The settings on record: FIG. 1, result in words. As to the method: as §2
A further experiment concerns S. aureus VAN1. Briefly: minimum inhibitory concentration (MIC) against S. aureus VAN1. Format: cell-based, Staphylococcus aureus.
Source text: as §1, §2, §3

The subject of a further experiment is E. faecalis 99. Briefly: minimum inhibitory concentration (MIC) against E. faecalis 99. Format: cell-based.
Source text: as §1, §2, §3, §4

A further experiment deals with E. faecium 119-39A. Briefly: minimum inhibitory concentration (MIC) against E. faecium 119-39A. Format: cell-based.
Source text: as §1, §2, §3

For another experiment, the system named is E. faecium 106. Briefly: minimum inhibitory concentration (MIC) against E. faecium 106. It is filed as cell-based.
Source text: as §1, §2, §3

For a further experiment, the system named is S. aureus NRS100 (COL). Briefly: minimum inhibitory concentration (MIC) against S. aureus NRS100 (COL). Format: cell-based, Staphylococcus aureus.
Source text: as §1, §2, §3

A further experiment has as its system gram positive bacteria. Briefly: inhibition of gram positive bacteria. It is filed as cell-based. The following applies: result in words.
Source text: as §5

The structures appear in SMILES notation.

In the case of `Oc1ccc(-c2nc(-c3ccc(Oc4ccc(C(F)(F)F)cc4)cc3)no2)cc1` [Compound 1, 4-(3-(4-(4-(trifluoromethyl)phenoxy)phenyl)-1,2,4-oxadiazol-5-yl)phenol], in the experiment with S. aureus ATCC 29213, the “minimum inhibitory concentration, S. aureus ATCC 29213” value was 2. In the experiment on S. aureus VAN2, the “minimum inhibitory concentration, S. aureus VAN2” value turned out to be 2. The “activity as measured by minimum inhibitory concentration testing against several strains of Entercoccus” value with strains of Entercoccus is “good activity”. In the experiment with E. faecal 201, the “minimum inhibitory concentration, E. faecal 201” value was 2 and the “minimum inhibitory concentration, E. faecal 201 BH” value is reported as 16. In the experiment with E. faecalis 29212, the “minimum inhibitory concentration, E. faecalis 29212” value was 2 and the “minimum inhibitory concentration, E. faecalis 29212 BH” value was 16. In experiment [1], the “activity as measured by minimum inhibitory concentration testing against several strains of Staphylococcus aureus” value was “good activity”. Besides, the “minimum inhibitory concentration, S. aureus VAN1” value in the experiment on S. aureus VAN1 turned out to be 2. In the experiment with E. faecalis 99, the “minimum inhibitory concentration, E. faecal 99 BH” value worked out at 8 and the “minimum inhibitory concentration, E. faecalis 99” value worked out at 2. Also, the “minimum inhibitory concentration, E. faecium 119-39A” value in the experiment with E. faecium 119-39A is 2. In the experiment on E. faecium 119-39A (E. faecium 119-39A BH), the “minimum inhibitory concentration, E. faecium 119-39A BH” value is given as 8. In addition, in the experiment on E. faecium 106, the “minimum inhibitory concentration, E. faecium 106” value amounted to 2. In the experiment on E. faecium 106 (E. faecium 106 BH), the “minimum inhibitory concentration, E. faecium 106 BH” value came out at 4. The “minimum inhibitory concentration, S. aureus NRS100 (COL)” value in the experiment on S. aureus NRS100 (COL) came to 2.

On to `Oc1ccc(-c2nc(-c3ccc(Oc4ccccc4)cc3)no2)cc1` [Compound 2, 4-(3-(4-phenoxyphenyl)-1,2,4-oxadiazol-5-yl)phenol], for which the “minimum inhibitory concentration, S. aureus ATCC 29213” value in the experiment with S. aureus ATCC 29213 is reported as 2. Moreover, in the experiment with S. aureus VAN2, the “minimum inhibitory concentration, S. aureus VAN2” value worked out at 2. Besides, the “activity as measured by minimum inhibitory concentration testing against several strains of Entercoccus” value in the experiment on strains of Entercoccus was “good activity”. The “minimum inhibitory concentration, E. faecal 201” value in the experiment with E. faecal 201 stood at 4. In addition, in the experiment on E. faecalis 29212, the “minimum inhibitory concentration, E. faecalis 29212” value is listed as 4. Further, the “activity as measured by minimum inhibitory concentration testing against several strains of Staphylococcus aureus” value in experiment [1] is “good activity”. Moreover, the “minimum inhibitory concentration, S. aureus VAN1” value in the experiment on S. aureus VAN1 was 2. For the same compound, the “minimum inhibitory concentration, E. faecalis 99” value in the experiment with E. faecalis 99 is on record as 4. In addition, the “minimum inhibitory concentration, E. faecium 119-39A” value in the experiment on E. faecium 119-39A came to 4. Besides, the “minimum inhibitory concentration, E. faecium 106” value with E. faecium 106 stood at 4. Besides, the “minimum inhibitory concentration, S. aureus NRS100 (COL)” value in the experiment on S. aureus NRS100 (COL) worked out at 2.

Regarding `CC(=O)O/N=C(\N)c1ccc(Oc2ccc(C(F)(F)F)cc2)cc1` [Compound 7], the “minimum inhibitory concentration, E. faecal 201” value with E. faecal 201 is recorded as 128. Besides, in the experiment on E. faecalis 29212, the “minimum inhibitory concentration, E. faecalis 29212” value stood at 32. In addition, the “minimum inhibitory concentration, E. faecal 99 BH” value in the experiment on E. faecalis 99 was 512.

With `N/C(=N\OC(=O)c1ccc([N+](=O)[O-])cc1)c1ccc(Oc2ccc(C(F)(F)F)cc2)cc1` [Compound 14, (Z)-4-(4-(trifluoromethyl)phenoxy)-O-(4-nitrobenzoyl)benzamidoxime], in the experiment on E. faecal 201, the “minimum inhibitory concentration, E. faecal 201” value was determined as 32. Besides, the “minimum inhibitory concentration, E. faecalis 29212” value in the experiment on E. faecalis 29212 is recorded as 128.

`O=[N+]([O-])c1ccc(-c2nc(-c3ccc(Oc4ccc(C(F)(F)F)cc4)cc3)no2)cc1` [Compound 15]: the “minimum inhibitory concentration, E. faecal 201” value in the experiment on E. faecal 201 was determined as 128. Besides, the “minimum inhibitory concentration, E. faecalis 29212” value with E. faecalis 29212 is 8.

Take `Fc1ccc(-c2nc(-c3ccccc3)no2)cc1` [Compound 19, 5-(4-fluorophenyl)-3-phenyl-1,2,4-oxadiazole]: the “minimum inhibitory concentration, E. faecal 201” value in the experiment with E. faecal 201 turned out to be 128. The “minimum inhibitory concentration, E. faecalis 29212” value with E. faecalis 29212 is listed as 64.

Turning to `COc1ccc(/C(N)=N/OC(=O)c2ccc(F)cc2)cc1` [Compound 25, 4-fluorobenzoyl-O-4-methoxybenzamidoxime], in the experiment with E. faecal 201, the “minimum inhibitory concentration, E. faecal 201” value stood at 256. Also, the “minimum inhibitory concentration, E. faecalis 29212” value in the experiment with E. faecalis 29212 is 256.

Regarding `COc1ccc(-c2noc(-c3ccc(F)cc3)n2)cc1` [Compound 26, 5-(4-fluorophenyl)-3-(4-methoxyphenyl)-1,2,4-oxadiazole], the “minimum inhibitory concentration, E. faecal 201” value in the experiment with E. faecal 201 amounted to 128. Besides, the “minimum inhibitory concentration, E. faecalis 29212” value in the experiment on E. faecalis 29212 was determined as 64.

In the case of `COc1ccc(-c2noc(-c3ccc(OCc4ccccc4)cc3)n2)cc1` [Compound 27, 5-(4-(benzyloxy)phenyl)-3-(4-methoxyphenyl)-1,2,4-oxadiazole], the “minimum inhibitory concentration, E. faecal 201” value with E. faecal 201 is reported as 256.

As to `COc1ccc(-c2noc(-c3ccc(O)cc3)n2)cc1` [Compound 28, 4-(3-(4-methoxyphenyl)-1,2,4-oxadiazol-5-yl)phenol], the “minimum inhibitory concentration, S. aureus ATCC 29213” value in the experiment on S. aureus ATCC 29213 is recorded as 32. For the same compound, in the experiment with E. faecal 201, the “minimum inhibitory concentration, E. faecal 201” value is recorded as 64.

Regarding `N/C(=N\OC(=O)c1ccc(F)cc1)c1ccc(Oc2ccccc2)cc1` [Compound 29, (Z)-4-(phenoxy)-O-(4-fluorobenzoyl)benzamidoxime], the “minimum inhibitory concentration, E. faecal 201” value in the experiment with E. faecal 201 came to 128. The “minimum inhibitory concentration, E. faecalis 29212” value with E. faecalis 29212 is 64.

Consider `Oc1ccc(Oc2ccc(-c3noc(-c4ccc(F)cc4)n3)cc2)cc1` [Compound 36, 4-(4-(5-(4-fluorophenyl)-1,2,4-oxadiazol-3-yl)phenoxy)phenol], for which, in the experiment on E. faecal 201, the “minimum inhibitory concentration, E. faecal 201” value amounted to 32. Besides, the “minimum inhibitory concentration, E. faecalis 29212” value in the experiment with E. faecalis 29212 was 64.

Consider `O=P(O)(O)Oc1ccc(Oc2ccc(-c3noc(-c4ccc(F)cc4)n3)cc2)cc1` [Compound 37, 4-(4-(5-(4-fluorophenyl)-1,2,4-oxadiazol-3-yl)phenoxy)phenyl dihydrogen phosphate], for which, in the experiment on E. faecal 201, the “minimum inhibitory concentration, E. faecal 201” value turned out to be 32 and the “minimum inhibitory concentration, E. faecal 201 BH” value amounted to 500. Further, in the experiment with E. faecalis 29212, the “minimum inhibitory concentration, E. faecalis 29212” value was determined as 500 and the “minimum inhibitory concentration, E. faecalis 29212 BH” value came out at 128. The “minimum inhibitory concentration, E. faecal 99 BH” value with E. faecalis 99 was found to be 500.

Consider `c1ccc(COc2ccc(-c3nc(-c4ccc(Oc5cnccn5)cc4)no3)cc2)cc1` [Compound 40, 2-(4-(5-(4-(benzyloxy)phenyl)-1,2,4-oxadiazol-3-yl)phenoxy)pyrazine], for which, in the experiment on E. faecal 201, the “minimum inhibitory concentration, E. faecal 201” value was 64.

Consider `c1ccc(COc2ccc(-c3nc(-c4ccc(Oc5ccccn5)cc4)no3)cc2)cc1` [Compound 43, 2-(4-(5-(4-(benzyloxy)phenyl)-1,2,4-oxadiazol-3-yl)phenoxy)pyridine], for which the “minimum inhibitory concentration, E. faecal 201” value with E. faecal 201 came to 64.

On to `Oc1ccc(-c2nc(-c3ccc(Oc4ccccn4)cc3)no2)cc1` [Compound 44, 4-(3-(4-(pyridin-2-yloxy)phenyl)-1,2,4-oxadiazol-5-yl)phenol], for which, in the experiment on E. faecal 201, the “minimum inhibitory concentration, E. faecal 201” value is recorded as 32.

Take `c1ccc(COc2ccc(-c3nc(-c4ccc(Oc5cccnc5)cc4)no3)cc2)cc1` [Compound 47, 3-(4-(5-(4-(benzyloxy)phenyl)-1,2,4-oxadiazol-3-yl)phenoxy)pyridine]: the “minimum inhibitory concentration, E. faecal 201” value in the experiment with E. faecal 201 worked out at 32.

With `Oc1ccc(-c2nc(-c3ccc(Oc4cccnc4)cc3)no2)cc1` [Compound 48, 4-(3-(4-(pyridin-3-yloxy)phenyl)-1,2,4-oxadiazol-5-yl)phenol], the “minimum inhibitory concentration, E. faecal 201” value in the experiment with E. faecal 201 is recorded as 32.

As for `c1ccc(COc2ccc(-c3nc(-c4ccc(Oc5ccncc5)cc4)no3)cc2)cc1` [Compound 51, 4-(4-(5-(4-(benzyloxy)phenyl)-1,2,4-oxadiazol-3-yl)phenoxy)pyridine], the “minimum inhibitory concentration, E. faecal 201” value with E. faecal 201 is 64.

`Oc1ccc(-c2nc(-c3ccc(Oc4ccncc4)cc3)no2)cc1` [Compound 52, 4-(3-(4-(pyridin-4-yloxy)phenyl)-1,2,4-oxadiazol-5-yl)phenol]: in the experiment on E. faecal 201, the “minimum inhibitory concentration, E. faecal 201” value was determined as 32.

In the case of `Fc1ccc(-c2nc(-c3ccc(Oc4ccc(C(F)(F)F)cc4)cc3)no2)cc1` [Compound A, 5-(4-fluorophenyl)-3-(4-(4-(trifluoromethyl)phenoxy)phenyl)-1,2,4-oxadiazole], the “activity against some strains of Entercoccus” value in the experiment with strains of Entercoccus (some strains of Entercoccus) is “shows activity”. In addition, the “minimum inhibitory concentration, E. faecal 201” value in the experiment on E. faecal 201 was determined as 128. Further, the “minimum inhibitory concentration, E. faecalis 29212” value in the experiment on E. faecalis 29212 was 125. The “inhibition of gram positive bacteria” value in the experiment with gram positive bacteria is “inhibitor”.

The values above are taken from patent US9045442B2, “Antibacterial compounds and methods of using same” (University of Notre Dame du Lac, priority 2007, dated 2015).
